Where a name gives a salt, the structure may show the parent alone.
Tested on: Chorioallantoic membrance (CAM)
Assay: CAM angiogenesis Inhibition Test
Type: in vivo, chicken (4 to 5 day old fertilized egg)
Settings: CAM of fertilized chicken egg, two days after; for Inhibition activity (%): 10 μl/egg in physiological saline or DMSO, 37.6° C., control vascularization settled as 100; for Judgement: class of inhibition activity, significance by Student's t-test, 2880 min
Experimental: Test was carried out by […]-Folkman's method (Nature, 297, 307 (1982)), but partially modified as described in Exp. Path. 30, 143 (1986). Chorioallantoic membrance (CAM) of 4 to 5 day old fertilized chicken egg (Babucock) was exposed. […] Vascularization (angiogenesis) of the control group was settled as 100 and the degree to the test sample was calcurated and expressed as inhibition activity. The significance of activity was determined by Student's t-test and the case over 50 % was indicated to + and the case below 50 % to i as shown in the following table.

| SMILES | Inhibition activity (%) | Judgement |
| --- | --- | --- |
| CCCC1=C(C(=O)Nc2ccc(C(C)(C)C)cc2)SC2=NCCCN21.Cl [Example 16, N-(4-tert-Butylphenyl)-3-propyl-6,7-dihydro-5H-thiazolo[3,2-a]pyrimidine-2-carboxamide hydrochloride] | 57.1% | + (over 50 %) |
| CCCC1=C(C(=O)Nc2ccc(SCCCCCC(=O)O)cc2)SC2=NCCCN21.Cl [Example 90, N-[4-(5-Carboxypentylthio)phenyl]-3-propyl-6,7-dihydro-5H-thiazolo[3,2-a]pyrimidine-2-carboxamide hydrochloride] | 93.2% | + (over 50 %) |
| Cl.O=C(Nc1cc(Cl)cc(Cl)c1)C1=C(C2CCC2)N2CCCN=C2S1 [Example 2, N-(3,5-Dichlorophenyl)-3-cyclobutyl-6,7-dihydro-5H-thiazolo[3,2-a]pyrimidine-2-carboxamide hydrochloride] | 82.5% | + (over 50 %) |
| Cl.O=C(Nc1cc(Cl)cc(Cl)c1)C1=C(C2CCCC2)N2CCCN=C2S1 [Example 9, N-(3,5-Dichlorophenyl)-3-cyclopentyl-6,7-dihydro-5H-thiazolo[3,2-a]pyrimidine-2-carboxamide hydrochloride] | 37.2% | – |
| CCCCC1=C(C(=O)Nc2cc(F)cc(F)c2)SC2=NCCCN21.Cl [Example 39, N-(3,5-Difluorophenyl)-3-butyl-6,7-dihydro-5H-thiazolo[3,2-a]pyrimidine-2-carboxamide hydrochloride] | 32.3% | – |
| CCCC1=C(C(=O)Nc2cc(Cl)cc(Cl)c2)SC2=NCCCN21 [Example 13, N-(3,5-dichlorophenyl)-3-propyl-6,7-dihydro-5H-thiazolo[3,2a-]pyrimidine-2-carboxamide hydrochloride] | 76.5% | + (over 50 %) |
| CCCCCCCCc1ccc(NC(=O)C2=C(CCC#N)N3CCCN=C3S2)cc1.Cl [Example 82, N-(4-Octylphenyl)-3-(2-cyanoethyl)-6,7-dihydro-5H-thiazolo-[3,2-a]pyrimidine-2-carboxamide hydrochloride] | 88.4% | + (over 50 %) |
| O=C(O)COC1=C(C(=O)Nc2cc(Cl)cc(Cl)c2)SC2=NCCCN21 [Example 114, N-(3,5-Dichlorophenyl)-3-carboxymethyloxy-6,7-dihydro-5H-thiazolo[3,2-a]pyrimidine-2-carboxamide] | 94.3% | + (over 50 %) |
| CCCCCCCCc1ccc(NC(=O)C2=C(CCC)N3CCCN=C3S2)cc1.Cl [Example 19, N-(4-n-Octylphenyl)-3-propyl-6,7-dihydro-5H-thiazolo[3,2-a]-pyrimidine-2-carboxamide hydrochloride] | 69.3% | + (over 50 %) |
| CCCCCCCCc1ccc(NC(=O)C2=C(C3CCC3)N3CCCN=C3S2)cc1.Cl [Example 8, N-(4-Octylphenyl)-3-cyclobutyl-6,7-dihydro-5H-thiazolo[3,2-a]pyrimidine-2-carboxamide hydrochloride] | 82.7% | + (over 50 %) |

Reference: patent US5599813A, “Thiazolopyrimidine derivatives” (Daiichi Pharmaceutical Co., Ltd., priority 1993, dated 1997)
